Patent US20080032945A1, “2'-MODIFIED OLIGONUCLEOTIDES” (Isis Pharmaceuticals, Inc., priority 1992, published 2008)
“And” between values parts separate entries of the source, which are not always exact repeats. Equal values may be shown once. “Also recorded” adds a separate entry of the source. [OPent] = 2'-O-pentyl ribonucleoside; d = 2'-deoxy (DNA); m = 2'-O-methyl; f = 2'-fluoro

Legend:
[1] = tested on: c-raf mRNA; assay: Northern blot analysis of inhibition of c-raf mRNA expression in T24 cells; assay type: cell-based, human
Source text: Chimeric oligonucleotides having SEQ ID NO:7 were designed using the Genbank c-raf sequence HUMRAFR (Genbank listing x03484), synthesized and tested for inhibition of c-raf mRNA expression in T24 bladder carcinoma cells using a Northern blot assay. These chimeric oligonucleotides have central “gap” regions of 6, 8 or 10 deoxynucleotides flanked by two regions of 2′-O-methyl modified nucleotides, and are shown in Table 10. Backbones were uniformly phosphorothioate. […] These oligonucleotides are preferred.
The human urinary bladder cancer cell line T24 was obtained from the American Type Culture Collection (Rockville, Md.). Cells were grown in McCoy's 5A medium with L-glutamine (GIBCO-BRL, Gaithersburg, Md.), supplemented with 10% heat-inactivated fetal calf serum and 50 U/ml each of penicillin and streptomycin. Cells were seeded on 100 mm plates. When they reached 70% confluency, they were treated with oligonucleotide. Plates were washed with 10 ml prewarmed PBS and 5 ml of OptiMEM reduced-serum medium containing 2.5 μl DOTMA. Oligonucleotide with lipofectin was then added to the desired concentration. After 4 hours of treatment, the medium was replaced with McCoy's medium. Cells were harvested 24 to 72 hours after oligonucleotide treatment and RNA was isolated using a standard CsCl purification method. [Kingston in Current Protocols in Molecular Biology, F. M. Ausubel, R. Brent, R. E. Kingston, D. D. Moore, J. A. Smith, J. G. Seidman and K. Strahl, Eds., John Wiley and Sons, New York.] Total RNA was isolated by centrifugation of cell lysates over a CsCl cushion. RNA samples were electrophoresed through 1.2% agarose-formaldehyde gels and transferred to hybridization membranes by capillary diffusion over a 12-14 hour period. The RNA was cross-linked to the membrane by exposure to UV light in a Stratalinker (Stratagene, La Jolla, Calif.) and hybridized to random-primed ^32P-labeled c-raf cDNA probe (obtained from ATCC) or G3PDH probe as a control. RNA was quantitated using a Phosphorimager (Molecular Dynamics, Sunnyvale, Calif.).

[2] = tested on: ras mRNA (wild-type H-ras codon-12); assay: Northern blot analysis of ras expression in HeLa cells; assay type: cell-based, human; conditions: result in words
Procedure: Oligonucleotides 2570 and 2503 were also tested to determine their effects on ras expression in HeLa cells, which have a wild-type (i.e., not activated) H-ras codon-12.
The human urinary bladder cancer cell line T24 was obtained from the American Type Culture Collection (Rockville Md.). Cells were grown in McCoy's 5A medium with L-glutamine (GIBCO-BRL, Gaithersburg, Md.), supplemented with 10% heat-inactivated fetal calf serum and 50 U/ml each of penicillin and streptomycin. Cells were seeded on 100 mm plates. When they reached 70% confluency, they were treated with oligonucleotide. Plates were washed with 10 ml prewarmed PBS and 5 ml of OptiMEM (GIBCO) reduced-serum medium containing 2.5 μl DOTMA. Oligonucleotide was then added to the desired concentration. After 4 hours of treatment, the medium was replaced with McCoy's medium. Cells were harvested 48 hours after oligonucleotide treatment and RNA was isolated using a standard CsCl purification method. […]
Northern hybridization: 10 μg of each RNA was electrophoresed on a 1.2% agarose/formaldehyde gel and transferred overnight to GeneBind 45 nylon membrane (Pharmacia LKB, Piscataway, N.J.) using standard methods. […] Blots were autoradiographed and the intensity of signal was quantitated using an ImageQuant PhosphorImager (Molecular Dynamics, Sunnyvale, Calif.). […]

[3] = tested on: ras mRNA; assay: Northern blot analysis of ras expression in T24 cells; assay type: cell-based, human; conditions: for ras expression / ras mRNA levels: result in words
Procedure: The human urinary bladder cancer cell line T24 was obtained from the American Type Culture Collection (Rockville Md.). Cells were grown in McCoy's 5A medium with L-glutamine (GIBCO-BRL, Gaithersburg, Md.), supplemented with 10% heat-inactivated fetal calf serum and 50 U/ml each of penicillin and streptomycin. Cells were seeded on 100 mm plates. When they reached 70% confluency, they were treated with oligonucleotide. Plates were washed with 10 ml prewarmed PBS and 5 ml of OptiMEM (GIBCO) reduced-serum medium containing 2.5 μl DOTMA. Oligonucleotide was then added to the desired concentration. After 4 hours of treatment, the medium was replaced with McCoy's medium. Cells were harvested 48 hours after oligonucleotide treatment and RNA was isolated using a standard CsCl purification method. [Kingston in Current Protocols in Molecular Biology, F. M. Ausubel, R. Brent, R. E. Kingston, D. D. Moore, J. A. Smith, J. G. Seidman and K. Strahl, Eds., John Wiley and Sons, New York.] The human epithelioid carcinoma cell line HeLa 229 was obtained from the American Type Culture Collection (Bethesda, Md.). HeLa cells were maintained as monolayers on 6-well plates in Dulbecco's Modified Eagle's medium (DMEM) supplemented with 10% fetal bovine serum and 100 U/ml penicillin. Treatment with oligonucleotide and isolation of RNA were essentially as described above for T24 cells.
Northern hybridization: 10 μg of each RNA was electrophoresed on a 1.2% agarose/formaldehyde gel and transferred overnight to GeneBind 45 nylon membrane (Pharmacia LKB, Piscataway, N.J.) using standard methods. [Kingston in Current Protocols in Molecular Biology, F. M. Ausubel, R. Brent, R. E. Kingston, D. D. Moore, J. A. Smith, J. G. Seidman and K. Strahl, Eds., John Wiley and Sons, New York.] RNA was UV-crosslinked to the membrane. Double-stranded ^32P-labeled probes were synthesized using the Prime a Gene labeling kit (Promega, Madison Wis.). The ras probe was a SalI-NheI fragment of a cDNA clone of the activated (mutant) H-ras mRNA having a GGC-to-GTC mutation at codon-12. The control probe was G3PDH. Blots were prehybridized for 15 minutes at 68° C. with the QuickHyb hybridization solution (Stratagene, La Jolla, Calif.). The heat-denatured radioactive probe (2.5×10^6 counts/2 ml hybridization solution) mixed with 100 μl of 10 mg/ml salmon sperm DNA was added and the membrane was hybridized for 1 hour at 68° C. The blots were washed twice for 15 minutes at room temperature in 2×SSC/0.1% SDS and once for 30 minutes at 60° C. with 0.1×SSC/0.1% SDS. Blots were autoradiographed and the intensity of signal was quantitated using an ImageQuant PhosphorImager (Molecular Dynamics, Sunnyvale, Calif.). Northern blots were first hybridized with the ras probe, then stripped by boiling for 15 minutes in 0.1×SSC/0.1% SDS and rehybridized with the control G3PDH probe to check for correct sample loading.

[4] = tested on: ras-luciferase (codon-12 point mutation of activated H-ras); assay: ras-luciferase reporter gene system; assay type: cell-based, human; conditions: for inhibition of ras-luciferase activity: cells expressing the mutant form of ras-luciferase, dose response, FIGS. 1 and 2
[5] = tested on: 25mer oligoribonucleotide complement; assay: Melting curves with 25mer oligoribonucleotide complement; assay type: binding; conditions: 17mer hybridized with 25mer oligoribonucleotide complement
Source text: Other sugar modifications: The effects of other 2′ sugar modifications besides 2′-O-methyl on antisense activity in chimeric oligonucleotides have been examined. These modifications are listed in Table 4, along with the Tm values obtained when 17mer oligonucleotides having 2′-modified nucleotides flanking a 7-base deoxy gap were hybridized with a 25mer oligoribonucleotide complement as described in Example 25. […] As alkyl length increased, Tm decreased.
Absorbance vs. temperature curves were measured at 260 nm using a Gilford 260 spectrophotometer interfaced to an IBM PC computer and a Gilford Response II spectrophotometer. The buffer contained 100 mM Na^+, 10 mM phosphate and 0.1 mM EDTA, pH 7. Oligonucleotide concentration was 4 μM each strand determined from the absorbance at 85° C. and extinction coefficients calculated according to Puglisi and Tinoco [Methods in Enzymol., 180, 304 (1989). Tm values, free energies of duplex formation and association constants were obtained from fits of data to a two state model with linear sloping baselines. [Petersheim and Turner, Biochemistry, 22, 256 (1983). Reported parameters are averages of at least three experiments. For some oligonucleotides, free energies of duplex formation were also obtained from plots of Tm^−1 vs log10 (concentration). Borer et al., J. Mol. Biol., 86, 843 (1974).

[6] = tested on: H-ras; assay: ras transactivation reporter gene assay; assay type: cell-based; conditions: result in words
Procedure: These 2′ modified oligonucleotides were tested for antisense activity against H-ras using the transactivation reporter gene assay described in Example 26. […] A 2′-fluoro chimeric oligonucleotide with a centered 5-deoxy gap was also active.
The expression plasmid pSV2-oli, containing an activated (codon 12, GGC-GTC) H-ras cDNA insert under control of the constitutive SV40 promoter, was a gift from Dr. Bruno Tocque (Rhone-Poulenc Sante, Vitry, France). This plasmid was used as a template to construct, by PCR, a H-ras expression plasmid under regulation of the steroid-inducible mouse mammary tumor virus (MMTV) promoter. To obtain H-ras coding sequences, the 570 bp coding region of the H-ras gene was amplified by PCR. The PCR primers were designed with unique restriction endonuclease sites in their 5′-regions to facilitate cloning. The PCR product containing the coding region of the H-ras codon 12 mutant oncogene was gel purified, digested, and gel purified once again prior to cloning. This construction was completed by cloning the insert into the expression plasmid pMAMneo (Clontech Laboratories, CA).
The ras-responsive reporter gene pRDO53 was used to detect ras expression. [Owen et al., Proc. Natl. Acad. Sci. U.S.A., 87, 3866 (1990).

[7] = tested on: T24 cancer cell proliferation; assay: Antisense oligonucleotide inhibition of proliferation of cancer cells; assay type: cell-based, human; conditions: for IC50: T24 cell proliferation, dose-response; for inhibited cell proliferation: T24 cells
Procedure: Antisense oligonucleotide inhibition of proliferation of cancer cells: Three 17mer oligonucleotides having the same sequence (SEQ ID NO:1), complementary to the codon 12 region of activated ras, were tested for effects on T24 cancer cell proliferation as described in Example 28. 3985 is a full phosphorothioate oligonucleotide having a 7-deoxy gap flanked by 2′-O-methyl nucleotides, and 4690 is a full phosphorothioate oligonucleotide having a 7-deoxy gap flanked by 2′-F nucleotides (C^FC^FA^F C^FA^FCd CdGdAd CdGdGd C^FG^FC^F C^FC^F, SEQ ID NO:1, nucleotides identified with an “^F” contain a […] substituent group and the remainder of the nucleotides identified with a “d” are 2′-deoxy-erythro-pentofuranosyl nucleotides).
Cells were cultured and treated with oligonucleotide essentially as described in Example 27. Cells were seeded on 60 mm plates and were treated with oligonucleotide in the presence of DOTMA when they reached 70% confluency. Time course experiment: On day 1, cells were treated with a single dose of oligonucleotide at a final concentration of 100 nM. The growth medium was changed once on day 3 and cells were counted every day for 5 days, using a counting chamber. Dose-response experiment: Various concentrations of oligonucleotide (10, 25, 50, 100 or 250 nM) were added to the cells and cells were harvested and counted 3 days later. Oligonucleotides 2570, 3985 and 4690 were tested for effects on T24 cancer cell proliferation.

Substance: TTCTCGCCCGCTCCTCCTCC (all phosphorothioate, sugars by position and methylation of C not given here; further chemistry not fully specified) [ISIS 7856, chimeric 2′-O-methyl P═S c-raf oligonucleotide, 5′UTR]
- inhibition of c-raf mRNA expression [1]: > 70%

Substance: CdCdAd CdAdCd CdGdAd CdGdGd CdGdCd CdCd [Oligonucleotide 2570, reference compound]
- ras expression [2]: did not inhibit ras expression in HeLa cells
- ras expression / ras mRNA levels [3]: inhibited ras expression in T24 cells; also recorded: decreased ras mRNA levels in T24 cells
- selectivity toward the mutant form of ras-luciferase as compared to the normal form [4]: threefold
- inhibition of ras-luciferase activity [4]: dose-dependent inhibition
- Tm [5]: 64.2 °C

Substance: C^FC^FA^F C^FA^FCd CdGdAd CdGdGd C^FG^FC^F C^FC^F [Oligonucleotide 4690]
- antisense activity against H-ras (ras expression) [6]: most active
- inhibition of ras expression / decrease of ras mRNA [3]: 82%
- Tm [5]: 76.9 °C
- IC50 [7]: 44 nM
- inhibited cell proliferation [7]: 93%

Substance: O-Pentyl: 17-mer CCACACCGACGGCGCCC (SEQ ID NO: 1), 2′-O-pentyl nucleotides flanking a 7-base deoxy gap (sugars from the 5' end [OPent]5 d7 [OPent]5, backbone and methylation of C not given here)
- Tm [5]: 68.5 °C

Substance: CTCGCCCGCTCCTCCTCCCC (all phosphorothioate, sugars by position and methylation of C not given here; further chemistry not fully specified) [ISIS 7849, chimeric 2′-O-methyl P═S c-raf oligonucleotide, 5′UTR]
- inhibition of c-raf mRNA expression [1]: > 70%

Substance: Oligonucleotide 4689: SEQ ID NO:1 chimeric oligonucleotide, 2′-fluoro-modified nucleotides flanking a 5-deoxy gap (CCACACCGACGGCGCCC; sugars from the 5' end f6 d5 f6, backbone and methylation of C not given here)
- antisense activity against H-ras (ras expression) [6]: also active
- inhibition of ras expression / decrease of ras mRNA [3]: 63%

Substance: TCCGTCATCGCTCCTCAGGG [Compound 2503, reference compound]
- ras expression [2]: inhibited ras expression in HeLa cells
- inhibition of ras expression / decrease of ras mRNA [3]: 71%
- ras expression / ras mRNA levels [3]: inhibited ras expression in T24 cells

Substance: TCCCGCCTGTGACATGCATT (all phosphorothioate, sugars by position and methylation of C not given here; further chemistry not fully specified) [ISIS 6717, chimeric 2′-O-methyl P═S c-raf oligonucleotide, 8-deoxy gap]
- inhibition of c-raf mRNA expression [1]: greater than 90%

Substance: TTCTCCTCCTCCCCTGGCAG (sugars from the 5' end m12 d8, all phosphorothioate, T or U not given here) [ISIS 7854, chimeric 2′-O-methyl P═S c-raf oligonucleotide, 3′UTR]
- inhibition of c-raf mRNA expression [1]: > 70%

Substance: C^MC^MA^M C^MA^MCd CdGdAd CdGdGd C^MG^MC^M C^MC^M [Oligonucleotide 3985]
- inhibition of ras expression / decrease of ras mRNA [3]: 95% and 81%
- inhibition of ras-luciferase activity [4]: greatest inhibition
- Tm [5]: 74.7 °C
- IC50 [7]: 61 nM
- inhibited cell proliferation [7]: 82%
